Assay results taken from ChEMBL document CHEMBL1137682, “Synthesis, characterization and structure-activity relationship analysis of novel depsides as potential antibacterials” (2009).
≈ marks a conversion by molar mass, not a printed value.

Key:
Type in all cases: functional
Escherichia coli = test: Antibacterial activity against Escherichia coli ATCC 35218 after 24 hrs by MTT assay; settings: ATCC 35218, 24 h
Staphylococcus aureus = test: Antibacterial activity against Staphylococcus aureus ATCC 6538 after 24 hrs by MTT assay; settings: ATCC 6538, 24 h
Enterobacter cloacae = test: Antibacterial activity against Enterobacter cloacae ATCC 13047 after 24 hrs by MTT assay; settings: ATCC 13047, 24 h
Bacillus subtilis = test: Antibacterial activity against Bacillus subtilis ATCC 6633 after 24 hrs by MTT assay; settings: ATCC 6633, 24 h
Enterococcus faecalis = test: microbe, parasite or virus in culture; settings: ATCC 9790, 24 h
Pseudomonas aeruginosa = test: Antibacterial activity against sPseudomonas aeruginosa ATCC 13525 after 24 hrs by MTT assay; settings: ATCC 13525, 24 h

Row | MIC (Escherichia coli) [µg/mL] | MIC (Staphylococcus aureus) [µg/mL] | MIC (Enterobacter cloacae) [µg/mL] | MIC (Bacillus subtilis) [µg/mL] | MIC (Enterococcus faecalis) [µg/mL] | MIC (Pseudomonas aeruginosa) [µg/mL] | Compound
1 | 6.25 (≈ 19.6 µM) | 6.25 (≈ 19.6 µM) | > 50 | > 50 | > 50 | 25 (≈ 78.4 µM) | CCOC(=O)Cc1ccccc1OC(=O)c1ccccc1Cl
2 | > 50 | > 50 | 6.25 (≈ 18.1 µM) | 25 (≈ 72.6 µM) | > 50 | 6.25 (≈ 18.1 µM) | COC(=O)Cc1ccccc1OC(=O)Cc1ccc(OC)c(OC)c1
3 | 6.25 (≈ 17.2 µM) | > 50 | > 50 | 1.56 (≈ 4.3 µM) | 25 (≈ 68.8 µM) | 25 (≈ 68.8 µM) | COC(=O)Cc1ccccc1OC(=O)Cc1cccc(Br)c1
4 | > 50 | 25 (≈ 79.5 µM) | > 50 | > 50 | > 50 | 6.25 (≈ 19.9 µM) | COC(=O)Cc1ccccc1OC(=O)Cc1cccc(OC)c1
5 | 3.12 (≈ 10.5 µM) | > 50 | 6.25 (≈ 20.9 µM) | 25 (≈ 83.8 µM) | > 50 | 12.5 (≈ 41.9 µM) | CCOC(=O)Cc1ccccc1OC(=O)c1ccc(C)cc1
6 | 25 (≈ 75.7 µM) | > 50 | > 50 | > 50 | > 50 | 6.25 (≈ 18.9 µM) | COC(=O)Cc1ccccc1OC(=O)c1cc(OC)cc(OC)c1
7 | 25 (≈ 82 µM) | 3.12 (≈ 10.3 µM) | > 50 | > 50 | 25 (≈ 82 µM) | > 50 | COC(=O)Cc1ccccc1OC(=O)c1ccccc1Cl
8 | 25 (≈ 82.7 µM) | 12.5 (≈ 41.3 µM) | 6.25 (≈ 20.7 µM) | 6.25 (≈ 20.7 µM) | 12.5 (≈ 41.3 µM) | 25 (≈ 82.7 µM) | COC(=O)Cc1ccccc1OC(=O)Cc1ccc(F)cc1
9 | 3.12 (≈ 9.91 µM) | 1.56 (≈ 4.95 µM) | 12.5 (≈ 39.6 µM) | 0.78 (≈ 2.47 µM) | 1.56 (≈ 4.95 µM) | 6.25 (≈ 19.8 µM) | COC(=O)Cc1ccccc1OC(=O)c1cccc([N+](=O)[O-])c1
10 | > 50 | > 50 | 25 (≈ 82 µM) | 25 (≈ 82 µM) | 12.5 (≈ 41 µM) | 25 (≈ 82 µM) | COC(=O)Cc1ccccc1OC(=O)c1ccc(Cl)cc1
11 | 3.12 (≈ 9.49 µM) | 3.12 (≈ 9.49 µM) | 6.25 (≈ 19 µM) | 0.78 (≈ 2.37 µM) | 1.56 (≈ 4.74 µM) | 6.25 (≈ 19 µM) | CCOC(=O)Cc1ccccc1OC(=O)c1cccc([N+](=O)[O-])c1
12 | 3.12 (≈ 11 µM) | 25 (≈ 87.9 µM) | 6.25 (≈ 22 µM) | 12.5 (≈ 44 µM) | > 50 | 12.5 (≈ 44 µM) | COC(=O)Cc1ccccc1OC(=O)c1ccc(C)cc1
13 | 25 (≈ 76.1 µM) | > 50 | > 50 | > 50 | 12.5 (≈ 38.1 µM) | 6.25 (≈ 19 µM) | CCOC(=O)Cc1ccccc1OC(=O)Cc1cccc(OC)c1
14 | > 50 | 3.12 (≈ 9.8 µM) | 25 (≈ 78.4 µM) | 3.12 (≈ 9.8 µM) | 12.5 (≈ 39.2 µM) | 12.5 (≈ 39.2 µM) | COC(=O)Cc1ccccc1OC(=O)Cc1cccc(Cl)c1
15 | 6.25 (≈ 19.6 µM) | 3.12 (≈ 9.8 µM) | 12.5 (≈ 39.2 µM) | 12.5 (≈ 39.2 µM) | 25 (≈ 78.4 µM) | > 50 | COC(=O)Cc1ccccc1OC(=O)Cc1ccc(Cl)cc1
16 | > 50 | > 50 | > 50 | 25 (≈ 78.4 µM) | 25 (≈ 78.4 µM) | > 50 | CCOC(=O)Cc1ccccc1OC(=O)c1ccc(Cl)cc1
17 | > 50 | 6.25 (≈ 17.2 µM) | 3.12 (≈ 8.6 µM) | 6.25 (≈ 17.2 µM) | 6.25 (≈ 17.2 µM) | 25 (≈ 68.8 µM) | COC(=O)Cc1ccccc1OC(=O)Cc1ccc(Br)cc1

The next lines start with the compound.

Row | Compound | MIC (Escherichia coli) [µg/mL] | MIC (Staphylococcus aureus) [µg/mL] | MIC (Enterobacter cloacae) [µg/mL] | MIC (Bacillus subtilis) [µg/mL] | MIC (Enterococcus faecalis) [µg/mL] | MIC (Pseudomonas aeruginosa) [µg/mL]
18 | CCOC(=O)Cc1ccccc1OC(=O)Cc1cccc(Br)c1 | 6.25 (≈ 16.6 µM) | > 50 | > 50 | 1.56 (≈ 4.14 µM) | > 50 | 25 (≈ 66.3 µM)
19 | CCOC(=O)Cc1ccccc1OC(=O)Cc1ccc(OC)c(OC)c1 | > 50 | 25 (≈ 69.8 µM) | 6.25 (≈ 17.4 µM) | 12.5 (≈ 34.9 µM) | > 50 | 12.5 (≈ 34.9 µM)
20 | CCOC(=O)Cc1ccccc1OC(=O)Cc1ccc(Br)cc1 | > 50 | 12.5 (≈ 33.1 µM) | 3.12 (≈ 8.28 µM) | 12.5 (≈ 33.1 µM) | > 50 | 25 (≈ 66.3 µM)
21 | CCOC(=O)Cc1ccccc1OC(=O)Cc1cccc(Cl)c1 | 6.25 (≈ 18.8 µM) | 6.25 (≈ 18.8 µM) | 25 (≈ 75.1 µM) | 3.12 (≈ 9.39 µM) | 6.25 (≈ 18.8 µM) | > 50
22 | COC(=O)c1ccc(O)cc1 [METHYLPARABEN] | 6.25 (≈ 41.1 µM) | 6.25 (≈ 41.1 µM) | 25 (≈ 164 µM) | 6.25 (≈ 41.1 µM) | 12.5 (≈ 82.2 µM) | 6.25 (≈ 41.1 µM)
23 | CC1(C)S[C@@H]2[C@H](NC(=O)Cc3ccccc3)C(=O)N2[C@H]1C(=O)O [PENICILLIN G] | 6.25 (≈ 18.7 µM) | 1.56 (≈ 4.67 µM) | 3.12 (≈ 9.35 µM) | 1.56 (≈ 4.67 µM) | 1.56 (≈ 4.67 µM) | 6.25 (≈ 18.7 µM)
24 | CCOC(=O)Cc1ccccc1OC(=O)Cc1ccc(OCC)c(OCC)c1 | 1.56 (≈ 4.04 µM) | 3.12 (≈ 8.09 µM) | 3.12 (≈ 8.09 µM) | 12.5 (≈ 32.3 µM) | 1.56 (≈ 4.04 µM) | 3.12 (≈ 8.09 µM)
25 | COC(=O)Cc1ccccc1O | 12.5 (≈ 75.2 µM) | 6.25 (≈ 37.6 µM) | 6.25 (≈ 37.6 µM) | 12.5 (≈ 75.2 µM) | 12.5 (≈ 75.2 µM) | 25 (≈ 150 µM)
26 | NC[C@H]1O[C@H](O[C@H]2[C@H](O)[C@@H](O[C@H]3O[C@H](CO)[C@@H](O)[C@H](N)[C@H]3O)[C@H](N)C[C@@H]2N)[C@H](N)[C@@H](O)[C@@H]1O [BEKANAMYCIN] | 3.12 (≈ 6.46 µM) | 1.56 (≈ 3.23 µM) | 1.56 (≈ 3.23 µM) | 0.39 (≈ 0.807 µM) | 3.12 (≈ 6.46 µM) | 3.12 (≈ 6.46 µM)
27 | CCOc1ccc(CC(=O)Oc2ccccc2CC(=O)OC)cc1OCC | 1.56 (≈ 4.19 µM) | 1.56 (≈ 4.19 µM) | 3.12 (≈ 8.39 µM) | > 50 | 3.12 (≈ 8.39 µM) | 3.12 (≈ 8.39 µM)
28 | CN(C)[C@@H]1C(O)=C(C(N)=O)C(=O)[C@@]2(O)C(O)=C3C(=O)c4c(O)cccc4[C@@](C)(O)[C@H]3C[C@@H]12 [TETRACYCLINE] | 6.25 (≈ 14.1 µM) | 1.56 (≈ 3.51 µM) | 1.56 (≈ 3.51 µM) | 1.56 (≈ 3.51 µM) | 0.78 (≈ 1.76 µM) | 1.56 (≈ 3.51 µM)
29 | CCOC(=O)Cc1ccccc1OC(=O)Cc1ccc(F)cc1 | 25 (≈ 79 µM) | 25 (≈ 79 µM) | 12.5 (≈ 39.5 µM) | 12.5 (≈ 39.5 µM) | 6.25 (≈ 19.8 µM) | > 50
30 | CCOC(=O)Cc1ccccc1O | 25 (≈ 139 µM) | 12.5 (≈ 69.4 µM) | 12.5 (≈ 69.4 µM) | 6.25 (≈ 34.7 µM) | 25 (≈ 139 µM) | 12.5 (≈ 69.4 µM)
31 | CN[C@H](CC(C)C)C(=O)N[C@H]1C(=O)N[C@@H](CC(N)=O)C(=O)N[C@H]2C(=O)N[C@H]3C(=O)N[C@H](C(=O)N[C@H](C(=O)O)c4cc(O)cc(O)c4-c4cc3ccc4O)[C@H](O)c3ccc(c(Cl)c3)Oc3cc2cc(c3O[C@@H]2O[C@H](CO)[C@@H](O)[C@H](O)[C@H]2O[C@H]2C[C@](C)(N)[C@H](O)[C@H](C)O2)Oc2ccc(cc2Cl)[C@H]1O.Cl [VANCOMYCIN HYDROCHLORIDE] | > 50 | 0.78 | > 50 | 0.39 | 1.56 | > 50
32 | CCOC(=O)Cc1ccccc1OC(=O)c1cc(OC)cc(OC)c1 | > 50 | > 50 | 25 (≈ 72.6 µM) | > 50 | 25 (≈ 72.6 µM) | 6.25 (≈ 18.1 µM)
33 | CCOC(=O)Cc1ccccc1OC(=O)Cc1ccc(Cl)cc1 | > 50 | 6.25 (≈ 18.8 µM) | 6.25 (≈ 18.8 µM) | 6.25 (≈ 18.8 µM) | 12.5 (≈ 37.6 µM) | 25 (≈ 75.1 µM)
